System: hemoglobin (Hb)
Test: Phase 2 study in hemodialysis subjects converting from epoetin alfa, Main Study: efficacy (hemoglobin)
Format: in vivo, human
Excerpt: The primary objective was to assess the efficacy and safety of daily dosing of vadadustat compared to epoetin alfa for 12 weeks in hemodialysis subjects. Additional objectives included to assess the efficacy and safety of three times weekly (TIW) dosing of vadadustat in selected hemodialysis subjects who have been successfully managed with daily dosing of vadadustat through Week 12, to evaluate the PK/PD of daily and TIW dosing of vadadustat in hemodialysis subjects compared to epoetin alfa, and to assess the efficacy and safety of several dosing strategies of vadadustat compared to epoetin alfa during a 20-week Treatment Period in hemodialysis subjects.
The Main study population consisted of adult subjects receiving chronic, outpatient in-center hemodialysis three times weekly (TIW), with 2 screening hemoglobin (Hb) values between 8.5 and 11.0 g/dL (inclusive) and on maintenance treatment with epoetin alfa <300 U/kg/week.
Efficacy Endpoints. The primary endpoint was the mean change in Hb between Baseline (average pretreatment Hb) and the primary evaluation period (average Hb from Weeks 10 to 12). Secondary endpoints included proportion of subjects with Hb values within the target range (10.0 to 11.0 g/dL, inclusive) at the primary evaluation period (Weeks 10-12) and for subjects who transitioned to TIW vadadustat dosing, mean change in Hb from primary evaluation period (average Hb from Weeks 10-12) to the secondary period (average Hb from Weeks 18-20). Other secondary endpoints included mean change in Hb from Baseline (average pretreatment Hb) and the secondary evaluation period (average Hb from Weeks 18-20), proportion of subjects with Hb values within the target range (10.0 to 11.0 g/dL, inclusive) at the secondary evaluation period (Weeks 18 to 20), for subjects who transitioned to TIW vadadustat dosing, proportion of subjects with Hb values within the target range (10.0 to 11.0 g/dL, inclusive) at the secondary evaluation period (Weeks 18-20), proportion of subjects with a mean increase in Hb from Baseline to the primary evaluation period ≥0.5 g/dL (average Hb from Weeks 10-12) or with Hb values within the target range (10.0 to 11.0 g/dL, inclusive) at the primary evaluation period (Weeks 10-12), proportion of subject with a mean increase in Hb from Baseline to the secondary evaluation period ≥0.5 g/dL (average Hb from Weeks 18-20) or with Hb values within the target range (10.0 to 11.0 g/dL, inclusive) at the secondary evaluation period (Weeks 18-20), intravenous (IV) iron supplementation, ESA rescue, and RBC transfusion.
Study Design. This was a Phase 2, randomized, open-label study to evaluate vadadustat for the treatment of anemia in hemodialysis subjects converting from epoetin alfa therapy. For all subjects (Main study and ESA hyporesponder parallel study), the study included a Screening Period, a study Treatment Period, and a Safety Follow-Up Period as described below. PK and PD sampling were done throughout the study. The aim was to achieve and maintain Hb levels within the target range of 10.0 to 11.0 g/dL, inclusive, while targeting the middle of the range and minimizing excursions outside the target range.
Randomization. Subjects were randomized to either a vadadustat treatment arm or epoetin alfa treatment arm. Randomization was stratified by mean weekly epoetin alfa dose calculated over a period of 8 weeks prior to SV2: low epoetin alfa dose group (≤90 U/kg/week) or high epoetin alfa dose group (>90 to <300 U/kg/week). In the low epoetin alfa dose group, subjects were randomized in a 3:3:2 ratio to receive either an initial vadadustat daily dose of 450 mg (3 tablets) or 300 mg (2 tablets), or epoetin alfa. In the high epoetin alfa dose group, subjects were randomized in a 3:3:3:2 ratio to receive either an initial vadadustat daily dose of 600 mg (4 tablets), 450 mg (3 tablets) or 300 mg (2 tablets), or epoetin alfa.
Study Treatment Period (Baseline/Day 1 to Week 20). […]

[1] = Primary Evaluation Period (Average of Weeks 10 to 12), Vada 300 mg, High Epoetin Alfa (>90 to <300 U/kg/week)
[2] = Primary Evaluation Period (Average of Weeks 10 to 12), Vada 300 mg, Low Epoetin Alfa (<90 U/kg/week)
[3] = Primary Evaluation Period (Average of Weeks 10 to 12), Vada 450 mg, High Epoetin Alfa (>90 to <300 U/kg/week)
[4] = Primary Evaluation Period (Average of Weeks 10 to 12), Vada 450 mg, Low Epoetin Alfa (<90 U/kg/week)
[5] = Primary Evaluation Period (Average of Weeks 10 to 12), Vada 600 mg, High Epoetin Alfa (>90 to <300 U/kg/week)
[6] = Secondary Evaluation Period (Average of Weeks 18 to 20), Vada 300 mg, High Epoetin Alfa (>90 to <300 U/kg/week)
[7] = Secondary Evaluation Period (Average of Weeks 18 to 20), Vada 300 mg, Low Epoetin Alfa (<90 U/kg/week)
[8] = Secondary Evaluation Period (Average of Weeks 18 to 20), Vada 450 mg, High Epoetin Alfa (>90 to <300 U/kg/week)
[9] = Secondary Evaluation Period (Average of Weeks 18 to 20), Vada 450 mg, Low Epoetin Alfa (<90 U/kg/week)
[10] = Secondary Evaluation Period (Average of Weeks 18 to 20), Vada 600 mg, High Epoetin Alfa (>90 to <300 U/kg/week)
[11] = Vada 300 mg, High Epoetin Alfa (>90 to <300 U/kg/week)
[12] = Vada 300 mg, Low Epoetin Alfa (<90 U/kg/week)
[13] = Vada 450 mg, High Epoetin Alfa (>90 to <300 U/kg/week)
[14] = Vada 450 mg, Low Epoetin Alfa (<90 U/kg/week)
[15] = Vada 600 mg, High Epoetin Alfa (>90 to <300 U/kg/week)

## O=C(O)CNC(=O)c1ncc(-c2cccc(Cl)c2)cc1O [Compound 1, {[5-(3-chlorophenyl)-3-hydroxypyridine-2-carbonyl]amino}acetic acid]
[1]
  Subjects with Hb Higher than Target range (10.0 to 11.0 g/dL), number (percentage of N2): 0
  Subjects with Hb Lower than Target range (10.0 to 11.0 g/dL), number (percentage of N2): 11 (91.7)
  Subjects with Hb Within Target range (10.0 to 11.0 g/dL), number (percentage of N2): 1 (8.3)
[2]
  Subjects with Hb Higher than Target range (10.0 to 11.0 g/dL), number (percentage of N2): 2 (6.7)
  Subjects with Hb Lower than Target range (10.0 to 11.0 g/dL), number (percentage of N2): 16 (53.3)
  Subjects with Hb Within Target range (10.0 to 11.0 g/dL), number (percentage of N2): 12 (40.0)
[3]
  Subjects with Hb Higher than Target range (10.0 to 11.0 g/dL), number (percentage of N2): 4 (22.2)
  Subjects with Hb Lower than Target range (10.0 to 11.0 g/dL), number (percentage of N2): 10 (55.6)
  Subjects with Hb Within Target range (10.0 to 11.0 g/dL), number (percentage of N2): 4 (22.2)
[4]
  Subjects with Hb Higher than Target range (10.0 to 11.0 g/dL), number (percentage of N2): 6 (20.0)
  Subjects with Hb Lower than Target range (10.0 to 11.0 g/dL), number (percentage of N2): 11 (36.7)
  Subjects with Hb Within Target range (10.0 to 11.0 g/dL), number (percentage of N2): 13 (43.3)
[5]
  Subjects with Hb Higher than Target range (10.0 to 11.0 g/dL), number (percentage of N2): 2 (14.3)
  Subjects with Hb Lower than Target range (10.0 to 11.0 g/dL), number (percentage of N2): 8 (57.1)
  Subjects with Hb Within Target range (10.0 to 11.0 g/dL), number (percentage of N2): 4 (28.6)
[6]
  Subjects with Hb Higher than Target range (10.0 to 11.0 g/dL), number (percentage of N2): 1 (14.3)
  Subjects with Hb Lower than Target range (10.0 to 11.0 g/dL), number (percentage of N2): 4 (57.1)
  Subjects with Hb Within Target range (10.0 to 11.0 g/dL), number (percentage of N2): 2 (28.6)
[7]
  Subjects with Hb Higher than Target range (10.0 to 11.0 g/dL), number (percentage of N2): 4 (15.4)
  Subjects with Hb Lower than Target range (10.0 to 11.0 g/dL), number (percentage of N2): 16 (61.5)
  Subjects with Hb Within Target range (10.0 to 11.0 g/dL), number (percentage of N2): 6 (23.1)
[8]
  Subjects with Hb Higher than Target range (10.0 to 11.0 g/dL), number (percentage of N2): 2 (14.3)
  Subjects with Hb Lower than Target range (10.0 to 11.0 g/dL), number (percentage of N2): 9 (64.3)
  Subjects with Hb Within Target range (10.0 to 11.0 g/dL), number (percentage of N2): 3 (21.4)
[9]
  Subjects with Hb Higher than Target range (10.0 to 11.0 g/dL), number (percentage of N2): 3 (12.5)
  Subjects with Hb Lower than Target range (10.0 to 11.0 g/dL), number (percentage of N2): 14 (58.3)
  Subjects with Hb Within Target range (10.0 to 11.0 g/dL), number (percentage of N2): 7 (29.2)
[10]
  Subjects with Hb Higher than Target range (10.0 to 11.0 g/dL), number (percentage of N2): 1 (10.0)
  Subjects with Hb Lower than Target range (10.0 to 11.0 g/dL), number (percentage of N2): 7 (70.0)
  Subjects with Hb Within Target range (10.0 to 11.0 g/dL), number (percentage of N2): 2 (20.0)
[11]
  Change from Baseline in Hb at Primary Evaluation Period, Mean (SD): −1.048 (0.730) g/dL
  Change from Baseline in Hb at Primary Evaluation Period, Median: -0.967 g/dL
  Change from Baseline in Hb at Secondary Evaluation Period, Mean (SD): 0.017 (1.086) g/dL
  Change from Baseline in Hb at Secondary Evaluation Period, Median: -0.325 g/dL
  Hb at Primary Evaluation Period (Average of Weeks 10 to 12), Mean (SD): 8.82 (0.761) g/dL
  Hb at Primary Evaluation Period (Average of Weeks 10 to 12), Median: 8.750 g/dL
  Hb at Secondary Evaluation Period (Average of Weeks 18 to 20), Mean (SD): 9.88 (1.027) g/dL
  Hb at Secondary Evaluation Period (Average of Weeks 18 to 20), Median: 9.575 g/dL
[12]
  Change from Baseline in Hb at Primary Evaluation Period, Mean (SD): −0.421 (0.732) g/dL
  Change from Baseline in Hb at Primary Evaluation Period, Median: -0.450 g/dL
  Change from Baseline in Hb at Secondary Evaluation Period, Mean (SD): −0.327 (1.086) g/dL
  Change from Baseline in Hb at Secondary Evaluation Period, Median: -0.300 g/dL
  Hb at Primary Evaluation Period (Average of Weeks 10 to 12), Mean (SD): 9.78 (0.742) g/dL
  Hb at Primary Evaluation Period (Average of Weeks 10 to 12), Median: 9.767 g/dL
  Hb at Secondary Evaluation Period (Average of Weeks 18 to 20), Mean (SD): 9.86 (0.932) g/dL
  Hb at Secondary Evaluation Period (Average of Weeks 18 to 20), Median: 9.775 g/dL
[13]
  Change from Baseline in Hb at Primary Evaluation Period, Mean (SD): −0.130 (1.033) g/dL
  Change from Baseline in Hb at Primary Evaluation Period, Median: -0.250 g/dL
  Change from Baseline in Hb at Secondary Evaluation Period, Mean (SD): −0.458 (0.895) g/dL
  Change from Baseline in Hb at Secondary Evaluation Period, Median: -0.575 g/dL
  Hb at Primary Evaluation Period (Average of Weeks 10 to 12), Mean (SD): 9.96 (1.121) g/dL
  Hb at Primary Evaluation Period (Average of Weeks 10 to 12), Median: 9.750 g/dL
  Hb at Secondary Evaluation Period (Average of Weeks 18 to 20), Mean (SD): 9.63 (0.954) g/dL
  Hb at Secondary Evaluation Period (Average of Weeks 18 to 20), Median: 9.475 g/dL
[14]
  Change from Baseline in Hb at Primary Evaluation Period, Mean (SD): −0.074 (1.085) g/dL
  Change from Baseline in Hb at Primary Evaluation Period, Median: 0.017 g/dL
  Change from Baseline in Hb at Secondary Evaluation Period, Mean (SD): −0.273 (0.827) g/dL
  Change from Baseline in Hb at Secondary Evaluation Period, Median: -0.300 g/dL
  Hb at Primary Evaluation Period (Average of Weeks 10 to 12), Mean (SD): 10.08 (1.226) g/dL
  Hb at Primary Evaluation Period (Average of Weeks 10 to 12), Median: 10.550 g/dL
  Hb at Secondary Evaluation Period (Average of Weeks 18 to 20), Mean (SD): 9.91 (0.909) g/dL
  Hb at Secondary Evaluation Period (Average of Weeks 18 to 20), Median: 9.917 g/dL
[15]
  Change from Baseline in Hb at Primary Evaluation Period, Mean (SD): −0.541 (1.124) g/dL
  Change from Baseline in Hb at Primary Evaluation Period, Median: -0.133 g/dL
  Change from Baseline in Hb at Secondary Evaluation Period, Mean (SD): −0.500 (1.025) g/dL
  Change from Baseline in Hb at Secondary Evaluation Period, Median: -0.300 g/dL
  Hb at Primary Evaluation Period (Average of Weeks 10 to 12), Mean (SD): 9.62 (1.026) g/dL
  Hb at Primary Evaluation Period (Average of Weeks 10 to 12), Median: 9.233 g/dL
  Hb at Secondary Evaluation Period (Average of Weeks 18 to 20), Mean (SD): 9.57 (0.871) g/dL
  Hb at Secondary Evaluation Period (Average of Weeks 18 to 20), Median: 9.450 g/dL
